Source: US10040838B2, “CRHR2 peptide agonists and uses thereof” (JANSSEN PHARMACEUTICA NV, priority 2008, dated 2018)
Where “and” joins values, the source holds several entries; their conditions need not be identical. Equal values may be shown once. No end group written: not given here.

Experiments:
human CRHR2 [1] = target: T1, human CRHR2 (Homo sapiens, UniProt Q13324); assay: Radioligand binding, membranes of SK-N-MC cells transfected with human CRHR2, [125I]-anti-sauvagine-30; settings: for CRHR2 nH: Table 15, slope of competition curve
T1 construct: expressed in transfected cells
T1 sequence (Q13324 1-411): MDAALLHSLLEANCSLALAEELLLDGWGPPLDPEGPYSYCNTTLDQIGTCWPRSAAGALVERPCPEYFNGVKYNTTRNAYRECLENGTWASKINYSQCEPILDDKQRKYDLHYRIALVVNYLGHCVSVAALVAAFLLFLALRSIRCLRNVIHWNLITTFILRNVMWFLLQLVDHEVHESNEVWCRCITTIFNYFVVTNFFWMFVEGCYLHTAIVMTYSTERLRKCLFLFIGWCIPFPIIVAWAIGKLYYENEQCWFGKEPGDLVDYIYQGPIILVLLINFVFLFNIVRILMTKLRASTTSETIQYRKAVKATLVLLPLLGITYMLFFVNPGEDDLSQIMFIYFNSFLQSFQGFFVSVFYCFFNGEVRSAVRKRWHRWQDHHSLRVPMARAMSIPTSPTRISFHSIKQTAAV
Method: The binding profile of h-SCP (SEQ ID NO:1) at CRHR2 was determined in radioligand binding studies in a membrane preparation of SK-N-MC cells stably transfected with human CRHR2 using [^125I]-anti-sauvagine-30 as the radiolabel. […] The solution was then homogenized with a Polytron tissue grinder at a setting of 10 and 7×3 s (Brinkmann Instruments, Westbury, N.Y.). The homogenate was centrifuged at 4° Celsius at 800×g for 5 min with the pellet being discarded. The supernatant was re-centrifuged at 26,892×g for 25 min at 4° Celsius with the final pellet being re-suspended in assay buffer. All binding assays were conducted in 96-well Multiscreen GF/B filter plates (Millipore, Billericay, Mass., U.S.A.) that were pre-soaked in assay buffer with 0.3% PEI for 1 hour. […] The bound radioactivity was separated by filtration using a Multiscreen Resist manifold (Millipore Corp., Billerica, Mass., U.S.A). The filters were washed three times with ice-cold PBS at pH 7.5 and radioactivity retained on the filters was quantified by its liquid scintillation measured by a TopCount counter (Packard BioScience, Boston, Mass., U.S.A). All experiments were performed in triplicate. Data from individual competition curves were expressed as the percentage of specific [^125I]-anti-sauvagine-30 or)[^125I]-([…])-sauvagine binding (B) within each experiment.

human CRHR2 [2] = target: T1, human CRHR2; assay: cAMP assay in h-CRHR2 transfected SK-N-MC cells; assay type: cell-based; settings: for Experimental nH / nH: Hill slope; for Experimental αmax: maximal asymptote
Procedure, shortened: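 SK-N-MC cells stably expressing human CRHR2 were stimulated with peptides (1 pM-10 μM) for 60 min at 37 °C with 10 μM IBMX, then lysed in 0.5 M HCl. cAMP was quantified by competitive [125I]-cAMP antibody flash-plate assay. Hill-equation fits gave A50/pA50; Log DR was taken relative to h-SCP control in the same batch.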

[3] = CRHR2, Table 11, listed as h-SCP
[4] = CRHR2, Table 11, listed as h-SRP

CRHR2 nH (human CRHR2 [1]) | Experimental nH (human CRHR2 [2]; [4]) | Experimental αmax (human CRHR2 [2]; [4]) | Experimental nH (human CRHR2 [2]; CRHR2, Table 11) | Experimental αmax (human CRHR2 [2]; CRHR2, Table 11) | Molecule | competition curve / affinity states (human CRHR2 [1]; [125I]-anti-sauvagine-30 competition) | Experimental pA50 (human CRHR2 [2]; CRHR2, Table 11, 1 hr at 37° Celsius, listed as h-SCP) | Experimental nH (human CRHR2 [2]; [3]) | Experimental αmax (human CRHR2 [2]; [3]) | nH (human CRHR2 [2]; Table 12) | pA50 (human CRHR2 [2]; Table 12, amidation and N-terminal deletions, 3-5 replicate experiments) | pA50 (human CRHR2 [2]; Table 14) | nH (human CRHR2 [2]; Table 14) | EC50 (human CRHR2 [2]; text b184, read-out: concentration required for 50% maximum effect (A50)) | pA50 (human CRHR2 [2]; text b201-b202, N-terminal deletions, parent in one batch)
1.26 ± 0.14 | 1.08 and 1.06 and 0.99 | 113.5 and 108.7 and 98.56 |  |  | HPGSRIVLSLDVPIGLLQILLEQARARAAREQATTNARILARV-NH2 [SEQ ID NO: 117, HPGSRIVLSLDVPIGLLQILLEQARAPAAREQATTNARILARV-NH2, reference compound] |  |  |  |  |  |  |  |  |  | 
1.19 ± 0.14 |  |  | 1.07 | 110.5 | CC[C@H](C)[C@H](NC(=O)[C@H](CO)NC(=O)[C@H](CC(C)C)NC(=O)[C@@H]1CCCN1C(=O)[C@@H]1CCCN1C(=O)[C@H](CC(=O)O)NC(=O)[C@@H](N)CC(=O)O)C(=O)N[C@@H](CC(=O)O)C(=O)N[C@@H](CC(C)C)C(=O)N[C@H](C(=O)N[C@@H](Cc1ccccc1)C(=O)N[C@@H](Cc1c[nH]cn1)C(=O)N[C@@H](CC(C)C)C(=O)N[C@@H](CC(C)C)C(=O)N[C@@H](CCCNC(=N)N)C(=O)N[C@H](C(=O)N[C@@H](CC(C)C)C(=O)N[C@@H](CC(C)C)C(=O)N[C@@H](CCC(=O)O)C(=O)N[C@@H](CC(C)C)C(=O)N[C@@H](C)C(=O)N[C@@H](CCCNC(=N)N)C(=O)N[C@H](C(=O)N[C@@H](CCC(N)=O)C(=O)N[C@@H](CO)C(=O)N[C@@H](CCC(N)=O)C(=O)N[C@@H](CCCNC(=N)N)C(=O)N[C@@H](CCC(=O)O)C(=O)N[C@@H](CCCNC(=N)N)C(=O)N[C@@H](C)C(=O)N[C@@H](CCC(=O)O)C(=O)N[C@@H](CCC(N)=O)C(=O)N[C@@H](CC(N)=O)C(=O)N[C@@H](CCCNC(=N)N)C(=O)N[C@H](C(=O)N[C@H](C(=O)N[C@@H](Cc1ccccc1)C(=O)N[C@@H](CC(=O)O)C(=O)N[C@@H](CO)C(=O)N[C@H](C(N)=O)C(C)C)[C@@H](C)CC)[C@@H](C)CC)[C@@H](C)O)[C@@H](C)O)[C@@H](C)O [SEQ ID NO: 114, DDPPLSIDLTFHLLRTLLELARTQSQRERAEQNRIIFDSV-NH2] |  |  |  |  |  |  |  |  |  | 

Molecule | CRHR2 nH (human CRHR2 [1]) | Experimental nH (human CRHR2 [2]; [4]) | Experimental αmax (human CRHR2 [2]; [4]) | Experimental nH (human CRHR2 [2]; CRHR2, Table 11) | Experimental αmax (human CRHR2 [2]; CRHR2, Table 11) | competition curve / affinity states (human CRHR2 [1]; [125I]-anti-sauvagine-30 competition) | Experimental pA50 (human CRHR2 [2]; CRHR2, Table 11, 1 hr at 37° Celsius, listed as h-SCP) | Experimental nH (human CRHR2 [2]; [3]) | Experimental αmax (human CRHR2 [2]; [3]) | nH (human CRHR2 [2]; Table 12) | pA50 (human CRHR2 [2]; Table 12, amidation and N-terminal deletions, 3-5 replicate experiments) | pA50 (human CRHR2 [2]; Table 14) | nH (human CRHR2 [2]; Table 14) | EC50 (human CRHR2 [2]; text b184, read-out: concentration required for 50% maximum effect (A50)) | pA50 (human CRHR2 [2]; text b201-b202, N-terminal deletions, parent in one batch)
TKFTLSLDVPTNIMNLLFNIAKAKNLRAQAAANAHLMAQI-NH2 [SEQ ID NO: 1, TKFTLSLDVPTNIMNLLFNIAKAKNLRAQAAANAHLMAQI-NH2, reference compound] | 1.00 ± 0.04 |  |  |  |  | biphasic | 9.41 | 0.99 and 1.04 and 1.39 and 1.55 | 99.31 and 97.53 and 116.1 and 98.2 | 1.18 | 9.41 | 9.40 | 1.26 | 400 pM | 9.41±0.03
